Where “and” joins values, the source holds several entries; their conditions need not be identical. Equal entries are not always repeated.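 Cultured in 96-well plates, cells were exposed to test compound for 48 hours across five concentrations. GI50 = concentration required for 50% inhibition of growth. TGI is the concentration that stops growth completely.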 Bounds are passed on as bounds.

Among the test systems are A498 renal; KM12 colon; NCI/ADR-RES ovarian; OVCAR-5 ovarian; RPMI-8226 leukemia; SK-MEL-2 melanoma; SK-MEL-28 melanoma; SN12C renal; U251 CNS; CAKI-1 renal.
Common to all, as to test: DTP human tumour cell line panel, 48 h

The term GI50 denotes the concentration that inhibits growth by half. As a reminder, the TGI is the concentration at which net growth stops. Read a low TGI as greater sensitivity of the cells. On to `CCc1cccc(C)c1NC(=O)c1sc2nc3c(cc2c1N)CCCCC3`, for which the GI50 was 2200 nM in the experiment on A498 renal; 3460 nM with KM12 colon; 2360 nM in the experiment with NCI/ADR-RES ovarian; 7.74 µM with OVCAR-5 ovarian; 4300 nM with RPMI-8226 leukemia; 3270 nM with SK-MEL-2 melanoma. For the same compound, the GI50 in the experiment with SK-MEL-28 melanoma is 12000 nM; in the experiment on SN12C renal, 6000 nM; with U251 CNS, 3620 nM. Also, the TGI in the experiment on A498 renal is 23.3 µM; with KM12 colon it was more than 100 µM; with NCI/ADR-RES ovarian, 14.1 µM; in the experiment on OVCAR-5 ovarian, more than 100 µM; in the experiment with RPMI-8226 leukemia it was 25 µM; in the experiment with SK-MEL-2 melanoma, more than 100 µM. Besides, the TGI was more than 100 µM with SK-MEL-28 melanoma, more than 100 µM with SN12C renal and 80.9 µM in the experiment on U251 CNS.
Turning to `CN(C)CCCNC(=O)c1cc(NC(=O)c2cc(NC(=O)CCc3c[nH]c4ccccc34)cn2C)cn1C`, the GI50 in the experiment on A498 renal is more than 100000 nM; in the experiment on KM12 colon, more than 100000 nM; in the experiment on NCI/ADR-RES ovarian, more than 100000 nM; in the experiment with OVCAR-5 ovarian, more than 100 µM; in the experiment on RPMI-8226 leukemia, more than 100000 nM; in the experiment on SK-MEL-2 melanoma, more than 100000 nM. Further, the GI50 with SK-MEL-28 melanoma, in the experiment on SN12C renal and in the experiment on U251 CNS was more than 100000 nM in each case. The TGI in the experiment on A498 renal, in the experiment on KM12 colon, with NCI/ADR-RES ovarian, in the experiment on OVCAR-5 ovarian, in the experiment on RPMI-8226 leukemia and in the experiment on SK-MEL-2 melanoma was more than 100 µM throughout. The TGI with SK-MEL-28 melanoma, in the experiment on SN12C renal and in the experiment on U251 CNS was more than 100 µM each time.
With `Nc1ccc(C2=NN(c3ccccc3)C(c3ccc(Cl)cc3)C2)cc1` (stereo not drawn), the GI50 was 1900 nM in the experiment on A498 renal; 3210 nM with CAKI-1 renal; 1680 nM in the experiment with KM12 colon; 3640 nM with NCI/ADR-RES ovarian; 10.6 µM in the experiment on OVCAR-5 ovarian; 1860 nM with RPMI-8226 leukemia. For the same compound, the GI50 in the experiment on SK-MEL-28 melanoma is 2070 nM; with SN12C renal, 1850 nM; in the experiment with U251 CNS, 1470 nM. The TGI turned out to be 13 µM in the experiment with A498 renal; 14 µM in the experiment with CAKI-1 renal; 3.11 µM with KM12 colon; 19.4 µM with NCI/ADR-RES ovarian; 24.8 µM with OVCAR-5 ovarian; 4.88 µM in the experiment with RPMI-8226 leukemia. The TGI was determined as 4.68 µM in the experiment with SK-MEL-28 melanoma, 4.53 µM in the experiment on SN12C renal and 2.79 µM in the experiment on U251 CNS.
As to `CC(C)=CCc1c(OC(=O)c2c(C)cc(O)cc2O)cc(CO)c(CO)c1O`, the TGI in the experiment with A498 renal is 35.1 µM; in the experiment on CAKI-1 renal, 20.5 µM; in the experiment with KM12 colon, 30.6 µM; in the experiment with NCI/ADR-RES ovarian, 85.6 µM; with OVCAR-5 ovarian, 43.1 µM; in the experiment with SK-MEL-2 melanoma it was 59.5 µM. For the same compound, the TGI worked out at 46.7 µM with SK-MEL-28 melanoma, 34.9 µM in the experiment on SN12C renal and 40 µM in the experiment on U251 CNS.
Regarding `Cc1ccc(S(=O)(=O)NC(=O)C2C(=O)CC3(CCCCC3)CC2=O)cc1`, the TGI in the experiment on A498 renal was 80.6 µM; in the experiment with CAKI-1 renal it was 65.9 µM; with KM12 colon it was 50 µM; in the experiment with NCI/ADR-RES ovarian, 37.9 µM; in the experiment on OVCAR-5 ovarian it was more than 100 µM; in the experiment with RPMI-8226 leukemia it was 51.5 µM. Also, the TGI was 86.4 µM in the experiment with SN12C renal and more than 100 µM in the experiment on U251 CNS.
For the compound `CC(C)CCC(=O)c1ccoc1`, the TGI in the experiment on CAKI-1 renal, in the experiment with KM12 colon, in the experiment with NCI/ADR-RES ovarian, with OVCAR-5 ovarian, in the experiment on RPMI-8226 leukemia and in the experiment on SK-MEL-2 melanoma was more than 100 µM throughout. Moreover, the TGI in the experiment on SK-MEL-28 melanoma, with SN12C renal and with U251 CNS was more than 100 µM throughout.
`CN(C)CCCOc1ccc(-c2ccc3ncc4c(c3c2)n(C2CCOCC2)c(=O)n4C)cn1`: the GI50 in the experiment with A498 renal was 559 nM; in the experiment with KM12 colon, 3160 nM; with NCI/ADR-RES ovarian, 3860 nM; in the experiment on OVCAR-5 ovarian, 1.49 µM; with RPMI-8226 leukemia, 1100 nM; in the experiment with SK-MEL-2 melanoma, 1470 nM. The GI50 was 1970 nM in the experiment on SK-MEL-28 melanoma, 2120 nM in the experiment with SN12C renal and 4520 nM in the experiment with U251 CNS. Further, the TGI in the experiment on A498 renal is 3.64 µM; with KM12 colon, 16.4 µM; with NCI/ADR-RES ovarian, 21.9 µM; with OVCAR-5 ovarian, 30.4 µM; in the experiment on RPMI-8226 leukemia, 8.63 µM; in the experiment with SK-MEL-2 melanoma, 6.21 µM. The values for the TGI in the experiment on SK-MEL-28 melanoma, in the experiment on SN12C renal and in the experiment with U251 CNS were 13 µM, 20.9 µM and 18.9 µM, respectively.
For the compound `CCC[CH2][Sn]([CH2]CCC)([CH2]CCC)[O]c1ccc(Cl)cc1Cl`, the GI50 in the experiment with A498 renal is 56.5 nM; in the experiment on CAKI-1 renal it was 87.8 nM; in the experiment on KM12 colon it was 93.9 nM; with NCI/ADR-RES ovarian, 141 nM; with OVCAR-5 ovarian it was 0.14 µM; in the experiment with SK-MEL-2 melanoma, 152 nM. For the same compound, the GI50 in the experiment with SK-MEL-28 melanoma was 162 nM; in the experiment with SN12C renal, 142 nM; in the experiment on U251 CNS it was 146 nM. For the same compound, the TGI with A498 renal worked out at 0.21 µM; in the experiment with CAKI-1 renal, 0.258 µM; in the experiment on KM12 colon, 0.244 µM; in the experiment with NCI/ADR-RES ovarian it was 0.312 µM; with OVCAR-5 ovarian, 0.298 µM; in the experiment with SK-MEL-2 melanoma it was 0.295 µM. The values for the TGI in the experiment with SK-MEL-28 melanoma, in the experiment on SN12C renal and with U251 CNS were 0.302 µM, 0.303 µM and 0.297 µM, respectively.
Regarding `CN[C@H]1C=C[C@@H]2/C=C(C)/C=C/[C@@H](C)[C@H]([C@H](C)[C@H](O)[C@@H](C)NC(C)=O)OC(=O)/C=C/C=C(C)\C=C\[C@]2(C)C1`, the GI50 is 11.3 nM in the experiment with A498 renal; 9.63 nM in the experiment on KM12 colon; 440 nM and 347 nM in the experiment on NCI/ADR-RES ovarian; 10.3 µM with OVCAR-5 ovarian; 4.9 nM with RPMI-8226 leukemia; 8.98 nM with SK-MEL-28 melanoma. Also, the GI50 in the experiment with SN12C renal is 6.33 nM; in the experiment with U251 CNS, < 1 nM and 4.9 nM. The TGI is 2.67 µM with A498 renal; more than 49 µM with KM12 colon; more than 49 µM with NCI/ADR-RES ovarian; more than 49 µM in the experiment on OVCAR-5 ovarian; 33.2 µM with RPMI-8226 leukemia; 27.9 µM in the experiment on SK-MEL-2 melanoma. For the same compound, the TGI with SK-MEL-28 melanoma is 33.6 µM; with SN12C renal, more than 49 µM; with U251 CNS, more than 49 µM.

The values are drawn from PubChem BioAssay (NCI).
